Source: PubChem BioAssay (NCI)
Values joined by “and” are separate entries in the source; they are usually repeats but may differ in a detail not shown here. Identical values can stand only once.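 Following 48 hours of exposure in 96-well plates, responses at five concentrations were used to interpolate endpoints linearly. Here, GI50 denotes the concentration required for 50% inhibition of growth. TGI is the concentration that stops growth completely.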

Tests used:
Experiment in all cases: NCI-60 cell line screen, 48 h
TK-10 renal = system: TK-10 renal
SNB-19 CNS = system: SNB-19 CNS
COLO 205 colon = system: COLO 205 colon
786-0 renal = system: 786-0 renal
A549 NSCLC = system: A549 NSCLC
SK-MEL-28 melanoma = system: SK-MEL-28 melanoma
SF-295 CNS = system: SF-295 CNS
ACHN renal = system: ACHN renal
SW-620 colon = system: SW-620 colon
NCI-H226 lung = system: NCI-H226 lung

SMILES	TGI (TK-10 renal) [µM]	TGI (SNB-19 CNS) [µM]	TGI (COLO 205 colon)	TGI (786-0 renal) [µM]	TGI (A549 NSCLC) [µM]	TGI (SK-MEL-28 melanoma) [µM]	TGI (SF-295 CNS) [µM]	TGI (ACHN renal) [µM]	TGI (SW-620 colon) [µM]	TGI (NCI-H226 lung) [µM]	GI50 (TK-10 renal) [µM]	GI50 (SNB-19 CNS) [µM]	GI50 (COLO 205 colon)	GI50 (A549 NSCLC) [µM]	GI50 (NCI-H226 lung) [µM]	GI50 (SK-MEL-28 melanoma)	GI50 (SF-295 CNS) [µM]	GI50 (ACHN renal) [µM]	GI50 (SW-620 colon) [µM]
CCOC(=O)/C(=C\NC#N)c1nc2ccccc2[nH]1	> 100	> 100	> 100 µM	> 100	> 100	> 100	> 100	> 100	> 100	–	–	–	–	–	–	–	–	–	–
COc1cc(C(c2cc(OC)c(OC)c(OC)c2)N2C(=O)CCC2C(=O)O)cc(OC)c1OC (configuration not stated)	–	> 100	> 100 µM	> 100	> 100	> 100	> 100	> 100	> 100	> 100	–	–	–	–	–	–	–	–	–
CCOC(=O)C1CCn2c(nc3c(=O)n(C)c(=O)n(C)c32)S1 (configuration not stated)	> 100	> 100	–	–	> 100	–	> 100	> 100	> 100	> 100	–	–	–	–	–	–	–	–	–
CCNC(=O)CCCCC(=O)c1c(C)[nH]c(/C=C2\N=C(c3ccc[nH]3)C=C2OC)c1C	5.37	19.2	3.65 µM	–	21.4	3.09	7.6	3.34	3.51	41.1	2.37	6.74	1.97 µM	4.72	20.3	1.66 µM	2.81	1.8	1.94
O=C1O[C@H](COC(=O)c2ccccc2)[C@@H](OC(=O)c2ccccc2)C=C1OC(=O)c1ccccc1	75.7	35.6	38.3 µM	33.7	–	–	34.8	35.3	35.9	45.6	–	–	–	–	–	–	–	–	–
CC(C)(CO)NC(=O)c1cccc(C(=O)NC(C)(C)CO)c1Br	> 100	> 100	> 100 µM	> 100	> 100	> 100	–	> 100	> 100	> 100	–	–	–	–	–	–	–	–	–
CCC(C)N1CN(c2ccccc2)C2(CCN(CCCC(=O)c3ccc(F)cc3)CC2)C1=O (configuration not stated)	16.5	–	0.348 µM	> 100	20.4	32.1	15.8	9.73	16	–	–	–	–	–	–	–	–	–	–
COc1ccc(-c2c(C(C)=O)c(-c3ccccc3)n(C3OC(COC(C)=O)C(OC(C)=O)C(OC(C)=O)C3OC(C)=O)c(=S)c2C#N)cc1O (configuration not stated)	–	> 100	57.5 µM and > 100 µM	> 100	> 100	> 100	> 100	> 100	> 100	–	–	–	21 µM and 47.7 µM	–	–	27.2 µM and 65.9 µM	–	–	–
CC1=NN(C(=O)c2ccccc2)C(=O)C1N=Nc1ccccc1C(=O)O (configuration not stated)	–	> 100	> 100 µM	–	> 100	> 100	> 100	–	> 100	> 73.7	–	–	–	–	–	–	–	–	–
COc1cc(C2c3cc4c(cc3[C@@H](Nc3ccc(N5CCOCC5)cc3)C3COC(=O)[C@H]23)OCO4)cc(OC)c1O (some centres not stated)	–	2.72	4.94 µM	–	1.62	26.8	2.42	–	10.1	2.9	–	–	–	–	–	–	–	–	–
CN1CCN(CCCCNc2cc3c4ccccc4c(NCCCCN4CCN(C)CC4)cc3c3ccccc23)CC1	18.4	12.5	14.3 µM	3.48	3.21	29	3.77	17.3	–	45.4	–	–	–	–	–	–	–	–	–
Cn1nc2ccc3nccc(NCCNCCCl)c3c2n1	> 100	> 100	> 100 µM	–	> 100	> 100	> 100	> 100	> 100	> 100	–	–	–	–	–	–	–	–	–
CCC(c1nc2ccccc2c(=O)n1NC(=O)C(C)(C)C)C1(O)CCCCC1 (configuration not stated)	–	> 100	> 100 µM	> 100	> 100	> 100	> 100	> 100	> 100	> 100	–	–	–	–	–	–	–	–	–
Cc1ccc(-c2nc3n(c2/C=N\N=C(N)N)CCS3)cc1	33.1	28.5	27.7 µM	29.3	29.5	29.4	24.6	28.2	30.8	–	–	–	–	–	–	–	–	–	–
CC(=O)O[C@H]1CC[C@H]2[C@@H]3CC[C@H]4Nc5c(cnn5S(C)(=O)=O)C[C@]4(C)[C@H]3CC[C@]12C	–	> 100	> 100 µM	–	–	> 100	> 100	–	–	> 100	–	–	–	–	–	–	–	–	–
N/C(=N\N=C/c1cc(Cl)cc(Cl)c1O)NO	–	> 53.9	> 43.7 µM	–	36.5	44.7	15.2	–	38.5	9.82	–	–	–	–	–	–	–	–	–
COc1ccc(CCNC(=S)/N=C\C2=C(O)c3ccccc3C2=O)cc1OC	–	> 100	> 100 µM	> 100	> 100	> 100	> 100	> 100	> 100	> 100	–	–	–	–	–	–	–	–	–
CC[S+](C)c1ccc(-c2c3nc(c(-c4ccc([S+](C)CC)cc4)c4ccc([nH]4)c(-c4ccc([S+](C)CC)cc4)c4nc(c(-c5ccc([S+](C)CC)cc5)c5ccc2[nH]5)C=C4)C=C3)cc1 (configuration not stated)	–	> 100	> 100 µM	> 100	> 100	> 100	> 100	> 100	> 100	–	–	–	–	–	–	–	–	–	–
C[n+]1c(-c2ccc(/C=N/Nc3n[nH]c(=S)n3N/N=C/c3ccc(-c4cn5ccccc5[n+]4C)cc3)cc2)cn2ccccc21	> 100	> 100	> 100 µM	> 100	> 100	> 100	> 100	> 100	> 100	–	–	–	–	–	–	–	–	–	–
Cc1cc(O)c(/C=N/C(=O)NN)c(=O)o1	> 100	> 100	> 100 µM	> 100	> 100	> 100	> 100	> 100	> 100	–	–	–	–	–	–	–	–	–	–
CCOC(=O)CC(=Nc1cc(C)on1)N(CC)CC	> 100	> 100	> 100 µM	> 100	> 100	> 100	–	> 100	> 100	> 100	–	–	–	–	–	–	–	–	–
CC1(C)CC(=O)C2=C(C1)N(c1ccccc1)C1(O)C=CC(=O)C3=C(O)c4ccccc4C(=O)C321 (configuration not stated)	52.2	54.5	> 100 µM	> 100	> 100	39.3	> 100	46.2	–	42.4	–	–	–	–	–	–	–	–	–
Cc1noc(C)c1N=Nc1ccc2nonc2c1N	> 100	> 100	> 100 µM	> 100	> 100	> 100	> 100	> 100	> 100	–	–	–	–	–	–	–	–	–	–
